Measured values published in paper PMC9024597, “The Biological Fate of a Novel Anticancer Drug Candidate TNBG-5602: Metabolic Profile, Interaction with CYP450, and Pharmacokinetics in Rats” (Molecules, 2022).

Legend:
[1] = In vivo metabolites in rat urine and feces by UPLC-Q-TOF-MS/MS; conditions: rats; for metabolite detected in feces: TNBG-5602 i.v. 4.8 mg kg^−1, feces 0-24 h
Procedure: An Exion LC^TM AC UPLC system (AB Sciex, Framingham, MA, USA) coupled with an […] Q-TOF tandem mass spectrometer was used for qualitative analysis in this study. Chromatographic separation was carried out on an ACQUITY UPLC HSS T3 column (2.1 × 75 mm, 1.8 μm, Waters, Wexford, Ireland). […] The column temperature was set to 35 °C. The injection volume was 5 μL. A full scan was performed over m/z 100-1000 for precursor ions in positive mode with a spray voltage of 5.5 kV, collision energy (CE) of 35 V, CE spread of 15 V, and accumulation time of 0.05 s. The Q-TOF scan for product ions was performed over m/z 100-1200 with CE 10 V and an accumulation time of 0.1 s. For the structural identification of metabolites, the UPLC-Q-TOF-MS/MS data were acquired and processed via SCIEX OS (Version 1.7, AB Sciex, Redwood City, CA, USA). The raw data files were imported into SCIEX OS 2.1 to search for and identify the metabolites of TNBG-5602. Identification of the chemical structure included two steps. The first step was automatic prediction, while the second step was manual validation. In Step 1, the candidate metabolites were predicted by the software based on the typical metabolic reactions of the templates. In Step 2, an ion chromatogram was extracted to screen candidate metabolites with mass tolerance within 5 ppm, using blank samples for the subtraction of the background. Then, the MS/MS fragment ions were extracted for the structural confirmation of candidate metabolites. […] The urine and feces samples were collected before administration (0 h) and at 8, 12, and 24 h after intravenous injection. The urine samples were vortex mixed with acetonitrile at a ratio of 1:3 (v/v) for 15 min. The mixture was then centrifuged at 15,000 rpm for 10 min, and the supernatant was dried using a gentle flow of nitrogen. The residue was dissolved in acetonitrile and vortex mixed again. The supernatant was dried again and re-dissolved in 0.1% aqueous formic acid: acetonitrile (50:50, v/v). The treated sample solutions were stored at -20 °C until analysis. A 5 μL aliquot of the thawed sample solution was injected into the UPLC-Q-TOF-MS/MS device to analyze the metabolites. The feces samples were homogenized with pure water at a ratio of 1:1 (w/w). The homogenate was vortex mixed with acetonitrile at a ratio of 1:3 (w/v) for 15 min. The mixture was then centrifuged at 15,000 rpm for 10 min, and the supernatant was dried using a gentle flow of nitrogen. The residue was dissolved with acetonitrile and vortex mixed again. The supernatant was dried again and re-dissolved in 0.1% aqueous formic acid: acetonitrile (50:50, v/v). The treated sample solutions were stored at -20 °C until analysis. A 5-μL aliquot of the thawed sample solution was injected into the UPLC-Q-TOF-MS/MS device to analyze the metabolites.

[2] = target: T1, CYP2D6 (Homo sapiens, UniProt P10635); test: Metabolite formation on incubation with recombinant CYP; type: in vitro ADME; conditions: TNBG-5602 5 μg mL^−1, recombinant CYP 0.025 μM, 37 °C, 60 min
T1 construct: purchased IPHASE
Procedure: (§1) An Exion LC^TM AC UPLC system (AB Sciex, Framingham, MA, USA) coupled with an […] Q-TOF tandem mass spectrometer was used for qualitative analysis in this study. Chromatographic separation was carried out on an ACQUITY UPLC HSS T3 column (2.1 × 75 mm, 1.8 μm, Waters, Wexford, Ireland). […] The column temperature was set to 35 °C. The injection volume was 5 μL. A full scan was performed over m/z 100-1000 for precursor ions in positive mode with a spray voltage of 5.5 kV, collision energy (CE) of 35 V, CE spread of 15 V, and accumulation time of 0.05 s. The Q-TOF scan for product ions was performed over m/z 100-1200 with CE 10 V and an accumulation time of 0.1 s. For the structural identification of metabolites, the UPLC-Q-TOF-MS/MS data were acquired and processed via SCIEX OS (Version 1.7, AB Sciex, Redwood City, CA, USA). The raw data files were imported into SCIEX OS 2.1 to search for and identify the metabolites of TNBG-5602. Identification of the chemical structure included two steps. The first step was automatic prediction, while the second step was manual validation. In Step 1, the candidate metabolites were predicted by the software based on the typical metabolic reactions of the templates. In Step 2, an ion chromatogram was extracted to screen candidate metabolites with mass tolerance within 5 ppm, using blank samples for the subtraction of the background. Then, the MS/MS fragment ions were extracted for the structural confirmation of candidate metabolites. The stock solution of TNBG-5602 ([…]) was prepared using 0.1% aqueous formic acid. Then, the stock solution was diluted with PBS buffer to make the working solution of TNBG-5602 (1 mg mL^-1). The working solution of TNBG-5602 was incubated with CYP2D6, CYP3A4, CYP2C9, and CYP4V2 recombinant cytochrome enzymes, respectively. The total incubation volume for each reaction was 200 μL, containing TNBG-5602 (final concentration: 5 μg mL^-1), cytochrome P450s (final concentration: 0.025 μM), 3.3 mM MgCl2, 1.3 mM NADPH, 3.3 mM glucose-6-phosphate, 0.4 U mL^-1 glucose-6-phosphate dehydrogenase, and 0.05 mM sodium citrate. The cytochrome P450s were thawed on an ice bath and pre-incubated at 37 °C for 5 min. The mixtures were pre-incubated at 37 °C for 5 min before adding NADPH to initiate the reaction. NADPH was pre-incubated at 37 °C for 5 min and then added into the incubation system to initiate the reaction. The incubation periods were 60 min, and the reactions were quenched by adding 200 μL of iced acetonitrile. The samples were centrifuged (12,000× g rpm, 4 °C) for 10 min, and the supernatant was analyzed via the qualitative LC-MS/MS method. Blank samples in the absence of TNBG-5602 were incubated and followed by the same treatment.

[3] = target: T2, CYP2C9 (Homo sapiens, UniProt P11712); test: as above; type: in vitro ADME; conditions: TNBG-5602 5 μg mL^−1, recombinant CYP 0.025 μM, 37 °C, 60 min
T2 construct: purchased IPHASE
Procedure: as §1

[4] = target: T3, CYP3A4 (Homo sapiens, UniProt P08684); test: as above; type: in vitro ADME; conditions: TNBG-5602 5 μg mL^−1, recombinant CYP 0.025 μM, 37 °C, 60 min
T3 construct: purchased IPHASE
Procedure: as §1

[5] = target: T4, CYP4V2 (Homo sapiens, UniProt Q6ZWL3); test: as above; type: in vitro ADME; conditions: TNBG-5602 5 μg mL^−1, recombinant CYP 0.025 μM, 37 °C, 60 min
T4 construct: purchased Abnova P01
T4 sequence (Q6ZWL3 1-525): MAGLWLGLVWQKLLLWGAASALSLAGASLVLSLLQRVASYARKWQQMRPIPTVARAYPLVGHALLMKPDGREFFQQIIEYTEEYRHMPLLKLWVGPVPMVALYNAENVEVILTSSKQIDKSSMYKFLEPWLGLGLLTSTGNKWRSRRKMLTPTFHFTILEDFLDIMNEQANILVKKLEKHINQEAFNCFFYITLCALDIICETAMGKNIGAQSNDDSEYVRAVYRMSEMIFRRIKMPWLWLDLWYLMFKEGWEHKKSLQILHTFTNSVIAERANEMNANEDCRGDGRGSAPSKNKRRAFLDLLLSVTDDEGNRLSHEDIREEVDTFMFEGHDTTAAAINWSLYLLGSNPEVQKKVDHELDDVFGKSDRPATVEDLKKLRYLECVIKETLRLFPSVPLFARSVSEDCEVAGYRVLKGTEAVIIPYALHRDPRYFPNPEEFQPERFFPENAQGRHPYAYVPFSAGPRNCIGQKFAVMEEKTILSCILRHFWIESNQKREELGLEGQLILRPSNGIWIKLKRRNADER
Procedure: as §1

T3 sequence (P08684 whole entry): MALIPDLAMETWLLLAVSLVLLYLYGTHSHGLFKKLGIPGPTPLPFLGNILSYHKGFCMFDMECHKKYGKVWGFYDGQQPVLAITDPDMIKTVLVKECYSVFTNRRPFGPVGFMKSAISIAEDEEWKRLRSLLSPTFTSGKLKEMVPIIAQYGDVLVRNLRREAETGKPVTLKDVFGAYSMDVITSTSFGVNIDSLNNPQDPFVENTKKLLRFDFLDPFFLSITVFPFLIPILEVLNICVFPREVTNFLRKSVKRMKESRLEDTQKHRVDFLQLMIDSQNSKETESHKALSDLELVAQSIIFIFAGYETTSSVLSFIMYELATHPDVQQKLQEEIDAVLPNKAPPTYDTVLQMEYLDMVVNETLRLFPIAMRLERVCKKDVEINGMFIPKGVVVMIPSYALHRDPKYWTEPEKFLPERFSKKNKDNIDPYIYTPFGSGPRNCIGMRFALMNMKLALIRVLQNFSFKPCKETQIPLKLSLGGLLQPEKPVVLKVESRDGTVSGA
T1 sequence (P10635 whole entry): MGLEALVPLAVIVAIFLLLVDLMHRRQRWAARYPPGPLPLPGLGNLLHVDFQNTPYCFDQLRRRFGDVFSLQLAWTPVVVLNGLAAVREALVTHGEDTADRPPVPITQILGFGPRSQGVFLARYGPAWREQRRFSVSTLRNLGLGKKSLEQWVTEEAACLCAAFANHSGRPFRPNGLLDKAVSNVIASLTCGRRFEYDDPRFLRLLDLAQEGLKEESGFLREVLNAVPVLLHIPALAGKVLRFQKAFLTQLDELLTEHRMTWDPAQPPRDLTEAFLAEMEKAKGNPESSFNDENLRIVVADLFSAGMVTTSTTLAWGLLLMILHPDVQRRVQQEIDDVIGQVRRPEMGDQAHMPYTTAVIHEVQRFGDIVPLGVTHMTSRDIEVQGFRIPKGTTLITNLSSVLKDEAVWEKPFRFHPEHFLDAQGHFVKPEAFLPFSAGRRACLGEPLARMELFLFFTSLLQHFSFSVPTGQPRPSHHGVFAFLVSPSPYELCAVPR
T2 sequence (P11712 whole entry): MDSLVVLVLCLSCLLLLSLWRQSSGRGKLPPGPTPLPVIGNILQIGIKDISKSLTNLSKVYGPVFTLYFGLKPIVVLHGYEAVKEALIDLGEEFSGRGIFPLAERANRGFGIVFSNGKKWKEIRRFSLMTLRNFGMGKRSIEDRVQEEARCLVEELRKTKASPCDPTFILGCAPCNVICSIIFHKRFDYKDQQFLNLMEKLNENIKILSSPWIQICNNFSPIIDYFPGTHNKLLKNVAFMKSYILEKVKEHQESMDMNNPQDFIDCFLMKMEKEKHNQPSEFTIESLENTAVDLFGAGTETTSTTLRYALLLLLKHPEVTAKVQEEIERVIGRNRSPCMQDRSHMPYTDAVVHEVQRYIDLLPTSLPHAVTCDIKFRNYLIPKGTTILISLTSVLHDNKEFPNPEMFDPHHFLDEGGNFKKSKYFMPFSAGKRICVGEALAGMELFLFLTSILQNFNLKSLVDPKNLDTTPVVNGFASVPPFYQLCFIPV

| rank of metabolite in the feces (major/minor) ([1]; TNBG-5602 i.v.) | rank of metabolite in the urine ([1]; TNBG-5602 i.v.) | metabolite detected in feces [1] | metabolite detected in urine ([1]; TNBG-5602 i.v. 4.8 mg kg^−1, urine 0-24 h) | metabolite detected after incubation with CYP2D6 [2] | metabolite detected after incubation with CYP2C9 [3] | metabolite detected after incubation with CYP3A4 [4] | metabolite detected after incubation with CYP4V2 [5] | Structure (SMILES) |
| --- | --- | --- | --- | --- | --- | --- | --- | --- |
| major | main | present and × | present and × | observed and × | found and × | obtained and × | found and × | CNCCN1CC2c3ccccc3CCN2c2nc3ccccc3nc21 (centres unmarked) [M5] |
| minor |  | × |  |  |  |  |  | CN1CCN2CC3c4ccccc4CCN3C3=Nc4ccccc4NC312 (centres unmarked) [M6] |
| minor |  | × |  |  |  |  |  | c1ccc2c(c1)CCN1c3nc4ccccc4nc3N(CCN3COC3)CC21 (centres unmarked) [M7] |
| minor |  | × |  |  |  |  |  | CN(C=O)CCN1CC2c3ccccc3CCN2c2nc3ccccc3nc21 (centres unmarked) [M8] |
